# Tested on: Mitochondria-located protein genes
# Assay: DNA chip mRNA expression in yeast, mitochondria-located protein genes (Table 2)
# Assay type: cell-based, Saccharomyces cerevisiae S288C
# Settings: cells incubated two hours with the chemical substance
# Method in brief: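 Chemical exposure: 2 h, log-phase S. cerevisiae S288C, YPD, 25° C., dose set to inhibit growth without death. Profiling: mRNA labeled by reverse transcription with Cy3- or Cy5-dUTP, hybridized to whole-genome array. Output: fluorescence ratio against untreated culture.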
structure (smiles),measurement,setting,value
"C=CC=O [(14), acrolein]",The level of expressed mRNA in the presence of chemical substance/The level of expressed mRNA in the absence of chemical substance,yeast gene YJR121W,0.7
same,The level of expressed mRNA in the presence of chemical substance/The level of expressed mRNA in the absence of chemical substance,yeast gene YKL003C,2.0
same,The level of expressed mRNA in the presence of chemical substance/The level of expressed mRNA in the absence of chemical substance,yeast gene YKL016C,1.6
same,The level of expressed mRNA in the presence of chemical substance/The level of expressed mRNA in the absence of chemical substance,yeast gene YKL141W,1.4
same,The level of expressed mRNA in the presence of chemical substance/The level of expressed mRNA in the absence of chemical substance,yeast gene YKL142W,2.3
same,The level of expressed mRNA in the presence of chemical substance/The level of expressed mRNA in the absence of chemical substance,yeast gene YKL148C,0.8
same,The level of expressed mRNA in the presence of chemical substance/The level of expressed mRNA in the absence of chemical substance,yeast gene YKL170W,1.3
same,The level of expressed mRNA in the presence of chemical substance/The level of expressed mRNA in the absence of chemical substance,yeast gene YKL194C,1.4
same,The level of expressed mRNA in the presence of chemical substance/The level of expressed mRNA in the absence of chemical substance,yeast gene YKR066C,1.5
same,The level of expressed mRNA in the presence of chemical substance/The level of expressed mRNA in the absence of chemical substance,yeast gene YLL041C,1.2
same,The level of expressed mRNA in the presence of chemical substance/The level of expressed mRNA in the absence of chemical substance,yeast gene YLR038C,1.6
same,The level of expressed mRNA in the presence of chemical substance/The level of expressed mRNA in the absence of chemical substance,yeast gene YLR259C,0.8
same,The level of expressed mRNA in the presence of chemical substance/The level of expressed mRNA in the absence of chemical substance,yeast gene YLR295C,1.2
same,The level of expressed mRNA in the presence of chemical substance/The level of expressed mRNA in the absence of chemical substance,yeast gene YLR304C,0.7
same,The level of expressed mRNA in the presence of chemical substance/The level of expressed mRNA in the absence of chemical substance,yeast gene YLR348C,1.0
same,The level of expressed mRNA in the presence of chemical substance/The level of expressed mRNA in the absence of chemical substance,yeast gene YLR395C,1.7
same,The level of expressed mRNA in the presence of chemical substance/The level of expressed mRNA in the absence of chemical substance,yeast gene YML054C,2.1
same,The level of expressed mRNA in the presence of chemical substance/The level of expressed mRNA in the absence of chemical substance,yeast gene YML120C,0.8
same,The level of expressed mRNA in the presence of chemical substance/The level of expressed mRNA in the absence of chemical substance,yeast gene YML129C,1.4
same,The level of expressed mRNA in the presence of chemical substance/The level of expressed mRNA in the absence of chemical substance,yeast gene YMR023C,1.6
same,The level of expressed mRNA in the presence of chemical substance/The level of expressed mRNA in the absence of chemical substance,yeast gene YMR035W,1.3
same,The level of expressed mRNA in the presence of chemical substance/The level of expressed mRNA in the absence of chemical substance,yeast gene YMR083W,0.8
same,The level of expressed mRNA in the presence of chemical substance/The level of expressed mRNA in the absence of chemical substance,yeast gene YMR089C,0.9
same,The level of expressed mRNA in the presence of chemical substance/The level of expressed mRNA in the absence of chemical substance,yeast gene YMR152W,1.1
same,The level of expressed mRNA in the presence of chemical substance/The level of expressed mRNA in the absence of chemical substance,yeast gene YMR203W,0.7
same,The level of expressed mRNA in the presence of chemical substance/The level of expressed mRNA in the absence of chemical substance,yeast gene YMR267W,1.0
same,The level of expressed mRNA in the presence of chemical substance/The level of expressed mRNA in the absence of chemical substance,yeast gene YNL055C,0.9
same,The level of expressed mRNA in the presence of chemical substance/The level of expressed mRNA in the absence of chemical substance,yeast gene YNL071W,0.8
same,The level of expressed mRNA in the presence of chemical substance/The level of expressed mRNA in the absence of chemical substance,yeast gene YNL073W,0.7
same,The level of expressed mRNA in the presence of chemical substance/The level of expressed mRNA in the absence of chemical substance,yeast gene YNL104C,0.9
same,The level of expressed mRNA in the presence of chemical substance/The level of expressed mRNA in the absence of chemical substance,yeast gene YNL256W,0.7
same,The level of expressed mRNA in the presence of chemical substance/The level of expressed mRNA in the absence of chemical substance,yeast gene YOL096C,1.4
same,The level of expressed mRNA in the presence of chemical substance/The level of expressed mRNA in the absence of chemical substance,yeast gene YOR020C,1.6
same,The level of expressed mRNA in the presence of chemical substance/The level of expressed mRNA in the absence of chemical substance,yeast gene YOR037W,1.0
same,The level of expressed mRNA in the presence of chemical substance/The level of expressed mRNA in the absence of chemical substance,yeast gene YOR100C,1.4
same,The level of expressed mRNA in the presence of chemical substance/The level of expressed mRNA in the absence of chemical substance,yeast gene YOR130C,1.3
same,The level of expressed mRNA in the presence of chemical substance/The level of expressed mRNA in the absence of chemical substance,yeast gene YOR142W,0.8
same,The level of expressed mRNA in the presence of chemical substance/The level of expressed mRNA in the absence of chemical substance,yeast gene YOR150W,1.6
same,The level of expressed mRNA in the presence of chemical substance/The level of expressed mRNA in the absence of chemical substance,yeast gene YOR176W,0.8
same,The level of expressed mRNA in the presence of chemical substance/The level of expressed mRNA in the absence of chemical substance,yeast gene YOR187W,0.6
same,The level of expressed mRNA in the presence of chemical substance/The level of expressed mRNA in the absence of chemical substance,yeast gene YOR316C,1.0
same,The level of expressed mRNA in the presence of chemical substance/The level of expressed mRNA in the absence of chemical substance,yeast gene YPL040C,1.1
same,The level of expressed mRNA in the presence of chemical substance/The level of expressed mRNA in the absence of chemical substance,yeast gene YPL134C,1.4
same,The level of expressed mRNA in the presence of chemical substance/The level of expressed mRNA in the absence of chemical substance,yeast gene YPL135W,1.1
same,The level of expressed mRNA in the presence of chemical substance/The level of expressed mRNA in the absence of chemical substance,yeast gene YPL215W,1.2
same,The level of expressed mRNA in the presence of chemical substance/The level of expressed mRNA in the absence of chemical substance,yeast gene YPL262W,1.2
same,The level of expressed mRNA in the presence of chemical substance/The level of expressed mRNA in the absence of chemical substance,yeast gene YPR024W,0.7
same,The level of expressed mRNA in the presence of chemical substance/The level of expressed mRNA in the absence of chemical substance,yeast gene YPR037C,1.6
same,The level of expressed mRNA in the presence of chemical substance/The level of expressed mRNA in the absence of chemical substance,yeast gene YPR047W,1.0
same,The level of expressed mRNA in the presence of chemical substance/The level of expressed mRNA in the absence of chemical substance,yeast gene YPR134W,1.5

# Source: US8192962B2, “Processes for detecting toxic substances” (Daikin Industries, Ltd., priority 2001, dated 2012)
